In the NIST ThermoML archive (doi:10.1016/j.tca.2014.03.019):
± gives the expanded uncertainty stated by the source.

Key:
[1] = Molar enthalpy of transition or fusion; conditions: Crystal; DSC
[2] = Crystal; for vapor or sublimation pressure: Transpiration method; for Normal melting temperature: DTA

CC(=O)Nc1ccccc1C(=O)O [2-acetamidobenzoic acid]
Conditions | Molar enthalpy of transition or fusion [kcal/mol] | Normal melting temperature [°C]
[1] | 11.8 ± 0.239 | –
[2] | – | 185.2 ± 1.1

[2]
Conditions | vapor or sublimation pressure [kPa]
344.7 K | 1.66e-05 ± 9e-07
351.3 K | 3.37e-05 ± 1.8e-06
357.3 K | 5.58e-05 ± 2.9e-06
363.5 K | 0.000111 ± 6e-06
363.8 K | 0.000116 ± 6e-06
366.2 K | 0.000138 ± 7e-06
369.7 K | 0.000235 ± 1.2e-05
371 K | 0.000243 ± 1.2e-05
373.5 K | 0.000289 ± 1.5e-05
377.4 K | 0.000555 ± 2.8e-05
380 K | 0.000571 ± 2.9e-05
383.8 K | 0.000948 ± 4.8e-05
387.2 K | 0.00117 ± 6e-05
390.4 K | 0.00152 ± 8e-05
393.5 K | 0.00198 ± 0.0001

CC(=O)Nc1cccc(C(=O)O)c1 [3-(acetylamino)benzoic acid]
Conditions | Molar enthalpy of transition or fusion [kcal/mol] | Normal melting temperature [°C]
[1] | 9.42 ± 0.215 | –
[2] | – | 245.1 ± 2.1

[2]
Conditions | vapor or sublimation pressure [kPa]
407.2 K | 2.67e-05 ± 1.4e-06
410.9 K | 4.67e-05 ± 2.4e-06
414.1 K | 5.62e-05 ± 2.9e-06
416.6 K | 6.27e-05 ± 3.2e-06
420.9 K | 0.000102 ± 5e-06
423.6 K | 0.000114 ± 6e-06
426.8 K | 0.000148 ± 8e-06
427.3 K | 0.000187 ± 1e-05
430.6 K | 0.000246 ± 1.2e-05
433 K | 0.000315 ± 1.6e-05
434.8 K | 0.000374 ± 1.9e-05
436.1 K | 0.000403 ± 2e-05
440.1 K | 0.00051 ± 2.6e-05
442.9 K | 0.000663 ± 3.3e-05

CC(=O)Nc1ccc(C(=O)O)cc1 [4-acetamidobenzoic acid]
Conditions | Molar enthalpy of transition or fusion [kcal/mol] | Normal melting temperature [°C]
[1] | 8.17 ± 0.191 | –
[2] | – | 262.1 ± 2.1

[2]
Conditions | vapor or sublimation pressure [kPa]
395 K | 1.43e-05 ± 8e-07
398.2 K | 2.1e-05 ± 1.2e-06
398.5 K | 2.09e-05 ± 1.1e-06
402.5 K | 2.92e-05 ± 1.6e-06
405.5 K | 3.48e-05 ± 1.8e-06
409.1 K | 5.24e-05 ± 2.7e-06
412.1 K | 6.72e-05 ± 3.5e-06
415.3 K | 0.0001 ± 5e-06
418.9 K | 0.000126 ± 6e-06
422.1 K | 0.000193 ± 1e-05
425 K | 0.000227 ± 1.1e-05
428.5 K | 0.000352 ± 1.8e-05
431.7 K | 0.000393 ± 2e-05
436.2 K | 0.000775 ± 3.9e-05
440 K | 0.000934 ± 4.7e-05
